Common to all, as to format: cell-based
In test [1] the test system is PBMCs. The experiment in a line: Cell mitosis assay in PBMCs. Conditions: Homo sapiens, PBMC, 5 μg/mL. As to the method:
Peripheral blood mononucleocytes (PBMCs) from healthy subjects are separated from whole blood (Quintiles, London, UK) using a density gradient (Histopaque®-1077, Sigma-Aldrich, Poole, UK). The PBMCs (3 million cells per sample) are subsequently treated with 2% PHA (phytohaemagglutinin, Sigma-Aldrich, Poole, UK) for 48 hr, followed by a 20 hr exposure to varying concentrations of test compounds. At 2 hr before collection, PBMCs are treated with demecolcine (0.1 μg/mL; Invitrogen, Paisley, UK) to arrest cells in metaphase. To observe mitotic cells, PBMCs are permeabilised and fixed by adding Intraprep (50 μL; Beckman Coulter, France), and stained with anti-phospho-histone 3 (0.26 ng/L; #9701; Cell Signalling, Danvers, Mass.) and propidium iodide (1 mg/mL; Sigma-Aldrich, Poole, UK) as previously described (Muehlbauer P. A. and Schuler M. J., Mutation Research, 2003, 537:117-130). Fluorescence is observed using an ATTUNE flow cytometer (Invitrogen, Paisley, UK), gating for lymphocytes.

Test [2] has as its system PBMCs. Description: IL-2 and IFN gamma release in CD3/CD28 stimulated PBMC cells. Conditions: Homo sapiens, assay (c). The protocol: PBMCs from healthy subjects are separated from whole blood using a density gradient (Lymphoprep, Axis-Shield Healthcare). Cells are added to a 96 well plate pre-coated with a mixture of CD3/CD28 monoclonal antibodies (0.3 μg/mL eBioscience and 3 μg/mL BD Pharmingen respectively). Compound at the desired concentration is then added to the wells and the plate left for 3 days under normal tissue culture conditions. […] The IC50 is determined from the dose response curve.

Test [3] relates to PBMCs. The experiment in a line: LPS-induced TNFα/IL-8 release in PBMC cells. The following applies: Homo sapiens, assay (b), read-out: IC50 Values for Inhibition of Cytokine Release PBMCs IL-8. In short, it runs like this:
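Healthy-donor PBMCs isolated by density gradient were pretreated with compound for 2 h, then stimulated with 1 ng/mL LPS (E. coli 0111:B4) for 24 h at 37° C., 5% CO2. IL-8 and TNFα in supernatants measured by sandwich ELISA.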

Where [4] appears, read: read-out: IC50 Values for Inhibition of Cytokine Release PBMCs IFNγ.
[5] abbreviates: read-out: IC50 Values for Inhibition of Cytokine Release PBMCs IL-2.

By inhibition is commonly meant the drop in the measured response relative to a control, in per cent. The IC50 is the concentration at which inhibition is half-maximal. Compound `C#Cc1cc(Nc2cc(Oc3ccc(NC(=O)Nc4cc(C(C)(C)C)cc(NS(C)(=O)=O)c4OC)c4ccccc34)ccn2)cc(C(=O)NCCCN2CCOCC2)c1` [85(d), 3-[[4-[[4-[[5-tert-Butyl-3-(methanesulfonamido)-2-methoxyphenyl]-carbamoylamino]-1-naphthyl]oxy]-2-pyridyl]amino]-5-ethynyl-N-(3-morpholinopropyl)-benzamide] gave an inhibition at 5 µg/mL in the test with PBMCs [1] of 33.2%. Moreover, the IC50 with PBMCs [2] (setting [4]) is 15.4 nM; with PBMCs [2] (setting [5]), 94.3 nM; in the test with PBMCs [3] it was 2.1 nM.

`CNC(=O)c1cc(C(C)(C)C)cc(NC(=O)Nc2ccc(Oc3ccnc(Nc4cc(OC)cc(OCCOCCOCCOC)c4)n3)c3ccccc23)c1OC` [Example 13, 5-(tert-Butyl)-2-methoxy-3-(3-(4-((2-((3-methoxy-5-(2-(2-(2-methoxyethoxy)ethoxy)-ethoxy)phenyl)amino)pyrimidin-4-yl)oxy)naphthalen-1-yl)ureido)-N-methylbenzamide]: the inhibition at 5 µg/mL in the test with PBMCs [1] amounted to 46.1%. The IC50 in the test with PBMCs [2] (setting [4]) was determined as 4.6 nM; in the test with PBMCs [2] (setting [5]), 57.4 nM; with PBMCs [3] it was 1.3 nM.

In the test with PBMCs [1], `COc1cc(Nc2cc(Oc3ccc(NC(=O)Nc4cc(C(C)(C)C)cc(NS(C)(=O)=O)c4OC)c4ccccc34)ccn2)cc(C(=O)NCC(C)(C)N2CCOCC2)c1` [85(h), 3-[[4-[[4-[[5-tert-Butyl-3-(methanesulfonamido)-2-methoxyphenyl]-carbamoylamino]-1-naphthyl]oxy]-2-pyridyl]amino]-5-methoxy-N-(2-methyl-2-morpholinopropyl)benzamide] displayed an inhibition at 5 µg/mL of 27.5%. Also, the IC50 with PBMCs [2] (setting [4]) worked out at 23 nM; in the test with PBMCs [2] (setting [5]) it was 150 nM; in the test on PBMCs [3], 2.2 nM.

In the test with PBMCs [1], `COc1cc(Nc2cc(Oc3ccc(NC(=O)Nc4cc(C(C)(C)C)cc(C(N)=O)c4OC)c4ccccc34)ccn2)cc(C(=O)NCCN2CCOCC2)c1` [Example 47, 3-((4-((4-(3-(5-(tert-Butyl)-3-carbamoyl-2-methoxyphenyl)ureido)naphthalen-1-yl)oxy)pyridin-2-yl)amino)-5-methoxy-N-(2-morpholinoethyl)benzamide] displayed an inhibition at 5 µg/mL of 59.1%. The concentration for half-maximal inhibition (IC50) with PBMCs [2] (setting [4]) worked out at 7.3 nM; in the test on PBMCs [2] (setting [5]) it was 102 nM; in the test on PBMCs [3] it was 1.6 nM.

In the test with PBMCs [1], `COc1cccc(Nc2cc(Oc3ccc(NC(=O)Nc4cc(C(C)(C)C)cc(C(=O)NC5COC5)c4OC)c4ccccc34)ccn2)c1` [Example 81, 5-(tert-Butyl)-2-methoxy-3-(3-(4-((2-((3-methoxyphenyl)amino)pyridin-4-yl)oxy)naphthalen-1-yl)ureido)-N-(oxetan-3-yl)benzamide] registered an inhibition at 5 µg/mL of 58.1%. Moreover, the IC50 was 4 nM in the test with PBMCs [2] (setting [4]), 98.8 nM in the test on PBMCs [2] (setting [5]) and 2.7 nM with PBMCs [3].

Regarding `COc1c(NC(=O)Nc2ccc(Oc3ccnc(NCc4ccccn4)c3)c3ccccc23)cc(C(C)(C)C)cc1C(=O)NC1COC1` [Example 80, 5-(tert-Butyl)-2-methoxy-N-(oxetan-3-yl)-3-(3-(4-((2-((pyridin-2-ylmethyl)amino)pyridin-4-yl)oxy)naphthalen-1-yl)ureido)benzamide], the inhibition at 5 µg/mL in the test with PBMCs [1] is 70.4%. Moreover, the results for the IC50 with PBMCs [2] (setting [4]) and with PBMCs [3] were 23.8 nM and 4.3 nM, respectively.

`COc1cc(CO)cc(Nc2cc(Oc3ccc(NC(=O)Nc4cc(C(C)(C)C)cc(C(N)=O)c4OC)c4ccccc34)ccn2)c1` [84(g), 5-tert-Butyl-3-[[4-[[2-[3-(hydroxymethyl)-5-methoxyanilino]-4-pyridyl]oxy]-1-naphthyl]carbamoylamino]-2-methoxybenzamide]: testing at 5 µg/mL in the test with PBMCs [1] gave an inhibition of 84.6%. For the same compound, the results for the IC50 with PBMCs [2] (setting [4]), with PBMCs [2] (setting [5]) and in the test with PBMCs [3] were 1.3 nM, 43.5 nM and 0.7 nM, respectively.

The compound `COCCOCCOCCOc1cc(Nc2nccc(Oc3ccc(NC(=O)Nc4cc(C(C)(C)C)cc(C(=O)NCCO)c4OC)c4ccccc34)n2)cc(OC)c1` [Example 35, 5-(tert-Butyl)-N-(2-hydroxyethyl)-2-methoxy-3-(3-(4-((2-((3-methoxy-5-(2-(2-(2-methoxy-ethoxy)ethoxy)ethoxy)phenyl)amino)pyrimidin-4-yl)oxy)naphthalen-1-yl)ureido)-benzamide] yielded an inhibition at 5 µg/mL with PBMCs [1] of 41.1%. The IC50 was found to be 3.5 nM with PBMCs [2] (setting [4]), 51 nM in the test with PBMCs [2] (setting [5]) and 1.4 nM in the test with PBMCs [3].

In the test on PBMCs [1], `COCCOCCOCCOc1cc(Nc2nccc(Oc3ccc(NC(=O)Nc4cc(C(C)(C)C)cc(-c5nnco5)c4OC)c4ccccc34)n2)cc(OC)c1` [Example 59, 1-(5-(tert-Butyl)-2-methoxy-3-(1,3,4-oxadiazol-2-yl)phenyl)-3-(4-((2-((3-methoxy-5-(2-(2-(2-methoxyethoxy)ethoxy)ethoxy)phenyl)amino)pyrimidin-4-yl)oxy)naphthalen-1-yl)urea] gave an inhibition at 5 µg/mL of 55.3%. In addition, the IC50 is 7.6 nM in the test with PBMCs [2] (setting [4]), 58.6 nM in the test on PBMCs [2] (setting [5]) and 3.3 nM with PBMCs [3].

As for `COCCOCCOCCOc1cc(Nc2nccc(Oc3ccc(NC(=O)Nc4cc(C(C)(C)C)cc(C(=O)NCCN(C)C)c4OC)c4ccccc34)n2)cc(OC)c1` [Example 46, 5-(tert-Butyl)-N-(2-(dimethylamino)ethyl)-2-methoxy-3-(3-(4-((2-((3-methoxy-5-(2-(2-(2-methoxyethoxy)ethoxy)ethoxy)phenyl)amino)pyrimidin-4-yl)oxy)naphthalen-1-yl)ureido)-benzamide], in the test with PBMCs [1], 5 µg/mL produced 67.1% inhibition. Besides, the half-maximal inhibitory concentration (IC50) in the test with PBMCs [2] (setting [4]) amounted to 2 nM; in the test with PBMCs [3], 0.9 nM.

In turn, `C#Cc1cc(Nc2cc(Oc3ccc(NC(=O)Nc4cc(C(C)(C)C)cc(CO)c4OC)c4ccccc34)ccn2)cc(C(=O)NCCOCCOCCOC)c1` [85(b), 3-[[4-[[4-[[5-tert-Butyl-3-(hydroxymethyl)-2-methoxyphenyl]-carbamoylamino]-1-naphthyl]oxy]-2-pyridyl]amino]-5-ethynyl-N-[2-[2-(2-methoxyethoxy)ethoxy]ethyl]benzamide] yielded an inhibition at 5 µg/mL with PBMCs [1] of 25.3%. The half-maximal inhibitory concentration (IC50) with PBMCs [2] (setting [4]) is 16.2 nM; with PBMCs [2] (setting [5]) it was 123 nM; with PBMCs [3], 1.5 nM.

`CNC(=O)c1cc(C(C)(C)C)cc(NC(=O)Nc2ccc(Oc3ccnc(Nc4cc(CO)cc(OC)c4)c3)c3ccccc23)c1OC` [84(h), 5-tert-Butyl-3-[[4-[[2-[3-(hydroxymethyl)-5-methoxyanilino]-4-pyridyl]oxy]-1-naphthyl]carbamoylamino]-2-methoxy-N-methyl-benzamide] returned an inhibition at 5 µg/mL with PBMCs [1] of 87%. In addition, the half-maximal inhibitory concentration (IC50) stood at 1.7 nM in the test on PBMCs [2] (setting [4]), 51.3 nM in the test with PBMCs [2] (setting [5]) and 0.7 nM in the test with PBMCs [3].

Take `COCCOCCOCCOc1cc(Nc2nccc(Oc3ccc(NC(=O)Nc4cc(NS(C)(=O)=O)cc(C(C)(C)C)c4)c4ccccc34)n2)cc(OC)c1` [Example 24, N-(3-(tert-Butyl)-5-(3-(4-((2-((3-methoxy-5-(2-(2-(2-methoxyethoxy)ethoxy)ethoxy)-phenyl)amino)pyrimidin-4-yl)oxy)naphthalen-1-yl)ureido)phenyl)methanesulfonamide]: the inhibition at 5 µg/mL in the test with PBMCs [1] is 22.5%. Also, the half-maximal inhibitory concentration (IC50) in the test with PBMCs [2] (setting [4]) came out at 10.7 nM; with PBMCs [2] (setting [5]), 24.9 nM; in the test with PBMCs [3] it was 1.9 nM.
